Reference: patent US9340577B2, “HLA binding motifs and peptides and their uses” (priority 1992, dated 2016)
No end group written: not given here.

What was measured:
Experiment in all cases: biochemical
DRB3*0101 = DRB3*0101 (Homo sapiens, UniProt P01903+P79483); assay type: binding
DRB5*0101 = DRB5*0101 (Homo sapiens, UniProt P01903+Q30154)
DRB1*0301 = DRB1*0301 (Homo sapiens, UniProt P01903+P01911, A100K/A102G/A103R/A169T/F55Y/I96L/K41T/L162R/M171V/P40S/Q125H/Q178H/Q39Y/R42S/S66N/T106N/T262R/W38E/Y61H); assay type: binding
DR7 (DRB1*0701) = DR7 (DRB1*0701) (Homo sapiens, UniProt P01903+P01911, A100R/A102G/A103Q/D57E/D86V/E43K/F76Y/K127E/L162R/M171V/P40G/Q125H/Q99D/R33Q/R42Y/R54Q/S133A/S66F/T210M/V115G/Y107V/Y59L/Y89S); assay type: binding
DRB1*1302 = DRB1*1302 (Homo sapiens, UniProt P01903+P01911, A100E/A169T/K41T/L162R/M171V/P40S/Q125H/Q178H/Q39Y/Q99D/R42S/S66N/T262R/V115G/W38E/Y61H); assay type: binding
DRB1*0901 = DRB1*0901 (Homo sapiens, UniProt P01903+P01911, A100R/A103E/D57H/D86V/F55Y/F60I/F76Y/I96F/K127E/L162R/M171V/P40D/Q125H/Q99R/R33Q/R42F/S133A/S66N/T210M/V115G/W38K/Y107V/Y59G/Y89S); assay type: binding
DRB4*0101 = DRB4*0101 (Homo sapiens, UniProt P01903+P13762, G164S); assay type: binding
DRB1*1201 = DRB1*1201 (Homo sapiens, UniProt P01903+P01911, A100R/A169T/D57E/D86V/F55L/H45Y/K41T/L162R/M171V/P40S/Q125H/Q178H/Q39Y/Q99D/R42G/S66L/T262R/V114A/V67L/W38E/Y59H/Y61H/Y89S); assay type: binding
DR1 (DRB1*0101) = DR1 (DRB1*0101) (Homo sapiens, UniProt P01903+P01911, A100R/D57E/F55L/F60I/F76Y/I96L/L162R/M171V/P40L/Q125E/R42F/V115G/Y59C); assay type: binding
DR4w4 (DRB1*0401) = DR4w4 (DRB1*0401) (Homo sapiens, UniProt P01903+P01911, A100K/A169T/F76Y/I96L/K127E/L162R/M171V/N62H/P40V/Q125Y/R42H/S133A/S149N/S66Y/V115G/V209L/W38E); assay type: binding
DRB1*0802 = DRB1*0802 (Homo sapiens, UniProt P01903+P01911, A100R/A103L/A169T/F76Y/H45Y/I96F/K41T/L162R/M171V/P40S/Q125H/Q178H/Q39Y/Q99D/R218S/R42G/S66Y/V115G/W38E); assay type: binding
DRB1*1501 = DRB1*1501 (Homo sapiens, UniProt P01903+P01911); assay type: binding
DRB1*1101 = DRB1*1101 (Homo sapiens, UniProt P01903+P01911, A100R/A169T/A87E/I96F/K41T/L162R/M171V/P40S/Q125H/Q178H/Q39Y/Q99D/R42S/S66Y/T262R/V115G/W38E)
DRB1*0405 = DRB1*0405 (Homo sapiens, UniProt P01903+P01911, A100R/A169T/D86S/F76Y/I96L/K127E/L162R/M171V/N62H/P40V/Q125Y/R42H/S133A/S149N/S66Y/V115G/V209L/W38E); assay type: binding

Chain of DRB1*0301 (P01903 26-254 limits assumed, other chains not shown): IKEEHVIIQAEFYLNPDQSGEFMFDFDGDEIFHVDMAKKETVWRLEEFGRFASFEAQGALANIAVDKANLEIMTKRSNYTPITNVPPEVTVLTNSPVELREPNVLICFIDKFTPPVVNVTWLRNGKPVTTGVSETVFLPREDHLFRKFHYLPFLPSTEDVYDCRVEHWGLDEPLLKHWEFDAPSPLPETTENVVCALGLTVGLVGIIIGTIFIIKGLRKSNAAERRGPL
Chain of DRB1*1101 (P01903 26-254 limits assumed, other chains not shown): as above
Chain of DRB1*1302 (P01903 26-254 limits assumed, other chains not shown): as above

| Compound | IC50 (DRB3*0101) [µM] | IC50 (DRB5*0101; Binding affinity DRB5 *0101) [µM] | IC50 (DRB1*0301) [µM] | IC50 (DR7 (DRB1*0701)) [µM] | IC50 (DRB1*1302) [µM] | IC50 (DRB1*0901) [µM] | IC50 (DRB4*0101) [µM] | IC50 (DRB1*1201) [µM] | IC50 (DR1 (DRB1*0101)) [µM] | IC50 (DR4w4 (DRB1*0401)) [µM] | IC50 (DRB1*0802) [µM] | IC50 (DRB1*1501) [µM] | IC50 (DRB1*1101; Binding affinity DRB1 *1101) [µM] | IC50 (DRB5*0101; DRB5*0101) [µM] | IC50 (DRB1*1101; DRB1*1101) [µM] | IC50 (DRB1*0405) [µM] | IC50 (DRB1*1101; […]) [µM] |
| --- | --- | --- | --- | --- | --- | --- | --- | --- | --- | --- | --- | --- | --- | --- | --- | --- | --- |
| CC[C@H](C)[C@H](N)C(=O)N[C@@H](CC(C)C)C(=O)N[C@@H](CC(C)C)C(=O)N[C@@H](Cc1c[nH]c2ccccc12)C(=O)N[C@@H](CCC(N)=O)C(=O)N1CCC[C@H]1C(=O)N[C@H](C(=O)N1CCC[C@H]1C(=O)N[C@H](C(=O)N[C@@H](Cc1c[nH]cn1)C(=O)N[C@H](C(=O)N[C@H](C(=O)N1CCC[C@H]1C(=O)N[C@@H](CC(C)C)C(=O)N[C@@H](CO)C(=O)O)C(C)C)[C@@H](C)O)C(C)C)[C@@H](C)CC [Peptide 68.0038] | > 20 | > 20 | > 20 |  |  |  |  |  |  |  |  |  |  |  |  |  |  |
| CC[C@H](C)[C@H](NC(=O)CNC(=O)[C@H](Cc1ccc(O)cc1)NC(=O)[C@H](CC(C)C)NC(=O)[C@H](CO)NC(=O)[C@H](CC(C)C)NC(=O)[C@H](CC(C)C)NC(=O)[C@H](CO)NC(=O)[C@H](CC(C)C)NC(=O)[C@H](CCC(=O)O)NC(=O)[C@H](CO)NC(=O)[C@@H](N)CC(C)C)C(=O)N[C@@H](Cc1c[nH]cn1)C(=O)N[C@@H](CCCCN)C(=O)N[C@@H](CCC(N)=O)C(=O)O [Peptide 68.0044] | > 20 |  | > 20 | > 20 |  |  |  |  |  |  |  |  |  |  |  |  |  |
| CC(C)C[C@H](NC(=O)CNC(=O)[C@H](CC(N)=O)NC(=O)[C@H](Cc1ccc(O)cc1)NC(=O)[C@@H](NC(=O)[C@H](CC(=O)O)NC(=O)[C@H](CC(C)C)NC(=O)[C@H](C)N)C(C)C)C(=O)N[C@@H](CC(C)C)C(=O)N1CCC[C@H]1C(=O)N1CCC[C@H]1C(=O)N[C@@H](Cc1ccc(O)cc1)C(=O)N[C@@H](C)C(=O)N[C@@H](CO)C(=O)N[C@@H](CS)C(=O)O [Peptide 68.0052] | > 20 | > 20 |  | > 20 | > 20 | > 20 | > 20 | 7.57 |  |  |  |  |  |  |  |  |  |
| CC(C)C[C@H](NC(=O)CNC(=O)[C@H](CC(N)=O)NC(=O)[C@H](Cc1ccc(O)cc1)NC(=O)[C@@H](NC(=O)[C@H](CC(=O)O)NC(=O)[C@@H](N)CC(C)C)C(C)C)C(=O)N[C@@H](CC(C)C)C(=O)N1CCC[C@H]1C(=O)N1CCC[C@H]1C(=O)N[C@@H](Cc1ccc(O)cc1)C(=O)N[C@@H](C)C(=O)N[C@@H](CO)C(=O)N[C@@H](CS)C(=O)N[C@@H](Cc1c[nH]cn1)C(=O)O [Peptide 68.0053] | > 20 | > 20 |  | > 20 | > 20 | > 20 | > 20 | 9.75 |  |  |  |  |  |  |  |  |  |
| CC(C)C[C@H](NC(=O)CNC(=O)[C@H](CC(N)=O)NC(=O)[C@@H](N)Cc1ccc(O)cc1)C(=O)N[C@@H](CC(C)C)C(=O)N1CCC[C@H]1C(=O)N1CCC[C@H]1C(=O)N[C@@H](Cc1ccc(O)cc1)C(=O)N[C@@H](C)C(=O)N[C@@H](CO)C(=O)N[C@@H](CS)C(=O)N[C@@H](Cc1c[nH]cn1)C(=O)N[C@@H](CC(C)C)C(=O)N[C@H](C(=O)N[C@@H](CCC(=O)O)C(=O)O)[C@@H](C)O [Peptide 68.0054] | > 20 |  |  | > 20 |  |  | > 20 | > 20 |  |  |  |  |  |  |  |  |  |
| CSCC[C@H](NC(=O)[C@@H](NC(=O)[C@H](CCCCN)NC(=O)[C@@H](NC(=O)[C@H](C)NC(=O)[C@H](CC(=O)O)NC(=O)[C@@H](N)[C@@H](C)O)C(C)C)C(C)C)C(=O)N[C@@H](CC(=O)O)C(=O)N[C@@H](CC(C)C)C(=O)N1CCC[C@H]1C(=O)N[C@H](C(=O)N[C@@H](CCC(N)=O)C(=O)N[C@@H](CCC(=O)O)C(=O)N1CCC[C@H]1C(=O)N[C@@H](C)C(=O)O)[C@@H](C)O [Peptide 68.0074] | > 20 | > 20 |  | > 20 | > 20 | > 20 |  | > 20 | > 20 | > 20 | > 20 | > 20 | > 20 |  |  |  |  |
| CSCC[C@H](NC(=O)CNC(=O)CNC(=O)[C@H](CCCNC(=N)N)NC(=O)[C@@H](NC(=O)[C@H](CCC(N)=O)NC(=O)[C@H](C)NC(=O)[C@@H](NC(=O)[C@@H](NC(=O)[C@H](CC(C)C)NC(=O)[C@H](Cc1c[nH]cn1)NC(=O)[C@H](Cc1ccc(O)cc1)NC(=O)[C@@H](N)CCCCN)[C@@H](C)O)C(C)C)C(C)C)C(=O)N[C@H](C(=O)N[C@@H](Cc1ccccc1)C(=O)O)C(C)C [Peptide 68.0120] | > 20 |  | > 20 |  |  |  |  |  |  |  |  |  |  |  |  |  |  |
| CC[C@H](C)[C@H](N)C(=O)N[C@@H](CO)C(=O)N[C@H](C(=O)N[C@H](C(=O)N[C@@H](CC(N)=O)C(=O)N[C@@H](CCC(=O)O)C(=O)N[C@@H](CC(=O)O)C(=O)NCC(=O)N[C@@H](CC(N)=O)C(=O)N[C@@H](CCC(=O)O)C(=O)N[C@H](C(=O)N[C@@H](Cc1ccccc1)C(=O)N[C@@H](CC(N)=O)C(=O)N[C@H](C(=O)N[C@@H](CO)C(=O)O)[C@@H](C)O)[C@@H](C)CC)[C@@H](C)CC)[C@@H](C)CC [Peptide 68.0166] | 0.035 | > 20 |  | > 20 |  | > 20 | 6.39 | 10.7 |  | > 20 | > 20 | 3.01 | > 20 | > 37.8 | > 18.9 |  |  |
| CC[C@H](C)[C@H](NC(=O)[C@@H](N)CCCCN)C(=O)N[C@@H](Cc1ccccc1)C(=O)NCC(=O)N[C@@H](CO)C(=O)N[C@@H](CC(C)C)C(=O)N[C@@H](C)C(=O)N[C@@H](Cc1ccccc1)C(=O)N[C@@H](CC(C)C)C(=O)N1CCC[C@H]1C(=O)N[C@@H](CCC(=O)O)C(=O)N[C@@H](CO)C(=O)N[C@@H](Cc1ccccc1)C(=O)N[C@@H](CC(=O)O)C(=O)NCC(=O)N[C@@H](CC(=O)O)C(=O)N1CCC[C@H]1C(=O)N[C@@H](C)C(=O)O [Peptide 1533.07] | > 20 |  | > 20 |  |  |  |  |  |  |  | > 20 |  | > 20 |  |  |  |  |
| AATYNFAVLKLMGRGTKF [Peptide F025.08] | > 20 |  | > 20 |  |  |  |  |  |  |  |  |  |  |  |  |  |  |
| EYILDLHPEPTDLFC [Peptide 1543.51] | 0.083 | > 20 |  | > 20 | 4.75 | > 20 | 0.0082 | 2.6 | 0.189 |  | 16.3 | > 20 | 19.5 |  |  | 1.14 |  |
| QKGRGYRGQHQAHSLERVCH [Peptide F025.05] | > 20 |  | > 20 |  |  |  |  |  |  |  |  | > 20 |  |  |  |  | > 20 |
| SADDLRAFQQLFLNT [Peptide 1543.07] | > 20 | > 20 |  | 0.124 | 3.13 | 0.559 | 0.27 | 0.305 | 0.295 |  | 7 |  | 3.59 |  |  | 0.411 |  |
| VHEGIRTYFVQFKDD [Peptide 1601.05] | 9.92 | > 20 | 9.33 | 5.73 |  | 5.86 | 1.8 |  | 9.28 |  | 12.2 | 0.038 | > 20 |  |  |  |  |
| VVTIPNSVQISVGYM [Peptide 1601.41] | > 20 | > 20 | > 20 | 0.071 |  |  |  |  |  | 0.835 |  | 3.44 | 4.22 |  |  |  |  |
